# Where a name gives a salt, the structure may show the parent alone.
# Assay: In house cohesion test of pastes (mass loss after sintering and immersion in water)
# Assay type: physicochemical
# Conditions: for Effect of plasticiser in liquid carrier on paste cohesion: PLGA 95:5/PEG400/CS pellets, FIG. 4
# Experimental: Pastes were prepared by mixing particles with a liquid carrier and their setting was assessed using an ‘in house’ cohesion test. Briefly, following paste sintering, aluminium foils containing the pastes were placed onto a sieve mesh and immersed to a depth of around 1 cm of water for 1 minute (FIG. 1). Afterwards, they were carefully removed from the sieve. The samples were freeze-dried and weighed so that mass loss could be estimated.
# A 355 μm sieve (Endecotts, BS410/1986) was placed on to its dedicated collection tray. • 2×100 mg of particles were manually mixed in an aluminium foil (4×4 cm circa) with 70 μl of each liquid carrier. • The obtained pastes were left to sinter in a sealed plastic bag with humidity >90% for different times. • Following sintering at RT or 37° C. in a humidified environment (>90% RH), the aluminium foils containing the pastes were placed onto the sieve mesh. • A constant, gentle, circa 7 ml/sec flow of water (Millipore, Direct-Q® 3 UV) was applied to the sieve mesh, until the samples became immersed in circa 1 cm of water. • Following immersion, samples were allowed to remain immersed in the head of water for circa 1 minute. • After the 1 minute, the sieve was removed from the sieve tray and the aluminium foils containing the samples were carefully removed from the sieve. • The samples with the aluminium foil were freeze-dried and weighed so that mass loss could be estimated. • The sieve tray (which was still filled with water) was visually inspected for the presence of particles that may have been lost from the samples during.
Effect of plasticiser in liquid carrier on paste cohesion,"Importance of plasticiser in liquid carrier for paste setting (PLGA50:50/PEG400/SIM pellets, sintering 10 to 60 min at 37° C., FIG. 6)",SMILES
behave in a similar way,,"CCOC(=O)CC(O)(CC(=O)OCC)C(=O)OCC [TEC, TriEthyl Citrate]"
,not important for paste setting,"CCO [ethanol, Ethanol]"
behave in a similar way,,"CC(=O)OCC(COC(C)=O)OC(C)=O [TA, triacetin]"

# — patent US20210290818A1, “SCAFFOLDING MATERIAL, METHODS AND USES” (LOCATE THERAPEUTICS LIMITED, priority 2016, published 2021)
